Values of other authors in patent publication US7022342B2, “Controlled release oral dosage form of beta-adrenergic blocking agents” (Andrx Corporation, Inc., priority 2002, dated 2006).

How the values were obtained:
[1] = after oral administration of the conventional tablets

time of peak plasma concentrations [1]: 60 to 90 min | solubility in water: freely soluble
Compound: CC(C)NCC(O)COc1cccc2ccccc12 (centres unmarked) [Propranolol]
